The values that follow come from PubChem BioAssay (NCI).

Some test systems named below: ACHN renal; SNB-19 CNS; 786-0 renal; LOX IMVI melanoma; M14 melanoma; HS 578T breast; HOP-62 NSCLC; SK-MEL-2 melanoma; RXF 393 renal; MCF7 breast.
Holding throughout (experiment): DTP human tumour cell line panel, 48 h

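48-hour exposure; five concentrations; linearly interpolated endpoints. GI50: concentration for 50% inhibition of growth. TGI: total growth inhibition.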

In general, GI50 refers to the concentration that inhibits growth by half. One may read the TGI as the concentration at which net growth stops. Read a low TGI as more potent growth arrest. For `Cc1sc2ncn(Cc3ccc(Cl)c(Cl)c3)c(=O)c2c1C`, the GI50 in the experiment with ACHN renal was 12.4 µM; with SNB-19 CNS, 38 µM; in the experiment on 786-0 renal, 34.2 µM; in the experiment on LOX IMVI melanoma, 25.8 µM; in the experiment on M14 melanoma, 24.4 µM; in the experiment with HS 578T breast, 35.2 µM. The GI50 was 14 µM in the experiment with HOP-62 NSCLC, 27.7 µM with SK-MEL-2 melanoma, over 100 µM in the experiment with RXF 393 renal and 25.6 µM in the experiment on MCF7 breast. For the same compound, the TGI with ACHN renal is over 100 µM; in the experiment with SNB-19 CNS, over 100 µM; in the experiment with 786-0 renal it was over 100 µM; in the experiment with LOX IMVI melanoma, over 100 µM; with M14 melanoma, 64 µM; in the experiment with HS 578T breast, over 100 µM. Besides, the TGI is 36.7 µM in the experiment on HOP-62 NSCLC, over 100 µM in the experiment on SK-MEL-2 melanoma, over 100 µM with RXF 393 renal and over 100 µM in the experiment on MCF7 breast.
Consider `COC(=O)[C@]12CC[C@@H](C)[C@H](C)[C@@H]1C1=CC[C@@H]3[C@@]4(C)CC(=O)[C@H](OC(=O)c5ccco5)[C@@]5(C)COC(=C45)C[C@@]3(C)[C@]1(C)CC2`, for which the GI50 with ACHN renal is 2.94 µM; with SNB-19 CNS, 3.57 µM; in the experiment on 786-0 renal, 2.24 µM; with LOX IMVI melanoma, 0.427 µM; with M14 melanoma it was 0.654 µM; in the experiment with HS 578T breast, over 100 µM. The GI50 with HOP-62 NSCLC is 17.6 µM; with SK-MEL-2 melanoma it was 5.63 µM; in the experiment on RXF 393 renal it was 67.9 µM; with MCF7 breast, 0.741 µM. Also, the total growth inhibition concentration (TGI) in the experiment on ACHN renal, in the experiment on SNB-19 CNS, in the experiment on 786-0 renal, in the experiment on LOX IMVI melanoma, in the experiment on M14 melanoma and in the experiment on HS 578T breast was over 100 µM in each case. Also, the TGI with HOP-62 NSCLC, in the experiment with SK-MEL-2 melanoma, in the experiment with RXF 393 renal and in the experiment on MCF7 breast was over 100 µM each time.
`CC(=O)N1CCN(CCOc2ccc(C3CCN(C4=Nn5c(nnc5C(F)(F)F)CC4)CC3)cc2)CC1`: the GI50 in the experiment on ACHN renal was 10.6 µM; in the experiment with SNB-19 CNS it was 22.4 µM; in the experiment on 786-0 renal it was 25.1 µM; in the experiment with LOX IMVI melanoma, 11.4 µM; in the experiment on M14 melanoma, 11.1 µM; with HS 578T breast it was 5.43 µM. The GI50 with HOP-62 NSCLC is 11.5 µM; in the experiment with SK-MEL-2 melanoma, 33.7 µM; in the experiment on RXF 393 renal, 19.4 µM; in the experiment with MCF7 breast it was 4.3 µM. Besides, the TGI with ACHN renal, with SNB-19 CNS, in the experiment with 786-0 renal, in the experiment on LOX IMVI melanoma, in the experiment on M14 melanoma and with HS 578T breast was over 100 µM in each case. The TGI in the experiment on HOP-62 NSCLC is over 100 µM; in the experiment with SK-MEL-2 melanoma it was over 100 µM; with RXF 393 renal, over 66 µM; in the experiment on MCF7 breast, over 100 µM.
As to `CC1(C)[C@@H](OC(N)=O)C=C[C@]2(C=O)[C@H]3CC[C@]4(C)[C@@H](c5ccc(=O)oc5)[C@@H](Cl)C[C@]4(O)C3=CC[C@@H]12`, the 50% growth inhibitory concentration (GI50) was under 0.0025 µM in the experiment with ACHN renal; 0.00782 µM in the experiment on SNB-19 CNS; 0.00478 µM in the experiment on 786-0 renal; 0.0046 µM in the experiment with LOX IMVI melanoma; 0.00544 µM in the experiment on M14 melanoma; under 0.0025 µM in the experiment with HS 578T breast. Also, the GI50 in the experiment with HOP-62 NSCLC was 0.00331 µM; with SK-MEL-2 melanoma, 0.00679 µM; with RXF 393 renal, 0.00561 µM; in the experiment with MCF7 breast it was 0.00688 µM. Besides, the total growth inhibition concentration (TGI) in the experiment on ACHN renal was found to be 0.00649 µM; in the experiment on SNB-19 CNS, 0.0253 µM; with 786-0 renal, 0.0106 µM; in the experiment with LOX IMVI melanoma, 0.00885 µM; with M14 melanoma, 0.0124 µM; in the experiment on HS 578T breast, 0.0146 µM. Moreover, the TGI in the experiment with HOP-62 NSCLC stood at 0.00699 µM; with SK-MEL-2 melanoma, 0.0173 µM; with RXF 393 renal, 0.0157 µM; in the experiment on MCF7 breast it was 0.0287 µM.
Regarding `OC(COc1cccc2ccccc12)CN1CCN(c2ccccc2Cl)CC1` (centres undefined), the GI50 was 13.9 µM with ACHN renal; 14.5 µM with SNB-19 CNS; 15.6 µM in the experiment on 786-0 renal; 14.2 µM in the experiment on LOX IMVI melanoma; 14.3 µM in the experiment with M14 melanoma; 15.8 µM in the experiment with HS 578T breast. The GI50 with HOP-62 NSCLC is 13.7 µM; in the experiment on SK-MEL-2 melanoma it was 15.4 µM; in the experiment with RXF 393 renal, 16.5 µM; in the experiment with MCF7 breast, 14.7 µM. The total growth inhibition concentration (TGI) in the experiment with ACHN renal came to 27.5 µM; with SNB-19 CNS it was 30.2 µM; in the experiment on 786-0 renal it was 30.4 µM; in the experiment with LOX IMVI melanoma, 30.2 µM; in the experiment with M14 melanoma it was 29.4 µM; with HS 578T breast, 58 µM. The TGI in the experiment on HOP-62 NSCLC stood at 27.3 µM; with SK-MEL-2 melanoma, 29.5 µM; in the experiment with RXF 393 renal, 30.8 µM; with MCF7 breast, 28.3 µM.
As to `O=C(Nc1cccc(C(F)(F)F)c1)c1cc(Br)cc(Br)c1O`, the total growth inhibition concentration (TGI) with ACHN renal is 9.29 µM; with SNB-19 CNS it was over 10 µM; in the experiment on 786-0 renal, over 10 µM; in the experiment on LOX IMVI melanoma it was 4.95 µM; in the experiment with M14 melanoma, over 10 µM; in the experiment with HS 578T breast, over 10 µM. Moreover, the concentration for total growth inhibition (TGI) with HOP-62 NSCLC is over 10 µM; with SK-MEL-2 melanoma, 5.07 µM; with RXF 393 renal it was 9.12 µM; with MCF7 breast it was over 10 µM.
For the compound `COc1cccc(C2=C(c3cn(C)c4cccc(OC)c34)C(=O)NC2=O)c1`, the GI50 in the experiment on ACHN renal was 15.5 µM; in the experiment on SNB-19 CNS, over 25 µM; in the experiment on 786-0 renal, 17.9 µM; in the experiment with LOX IMVI melanoma, 17.1 µM; in the experiment with M14 melanoma it was 7.98 µM; in the experiment on HS 578T breast it was 8.93 µM. For the same compound, the GI50 in the experiment with HOP-62 NSCLC was 18.8 µM; with SK-MEL-2 melanoma it was 7.75 µM; in the experiment with RXF 393 renal, 5.03 µM; in the experiment on MCF7 breast, 6.99 µM. In addition, the TGI with ACHN renal, in the experiment with SNB-19 CNS, in the experiment on 786-0 renal, with LOX IMVI melanoma, in the experiment on M14 melanoma and with HS 578T breast was over 25 µM each time. Moreover, the TGI in the experiment on HOP-62 NSCLC is over 25 µM; with SK-MEL-2 melanoma, over 25 µM; in the experiment with RXF 393 renal it was over 19 µM; with MCF7 breast it was over 25 µM.
Regarding `O=C(NCCCCOCC#Cc1ccccc1C#CCS(=O)(=O)c1ccccc1)c1cc2ccccc2[nH]1`, the GI50 in the experiment with ACHN renal was 9.64 µM; in the experiment with SNB-19 CNS, 15.1 µM; in the experiment on 786-0 renal, 12.8 µM; in the experiment on LOX IMVI melanoma, 1.58 µM; with M14 melanoma, 12.1 µM; in the experiment on HS 578T breast, 21.9 µM. The GI50 in the experiment on HOP-62 NSCLC is 21.5 µM; in the experiment with SK-MEL-2 melanoma, 20.9 µM; with RXF 393 renal, 12.2 µM; in the experiment on MCF7 breast it was 8.91 µM. Besides, the TGI is 22.9 µM in the experiment with ACHN renal; over 50 µM in the experiment with SNB-19 CNS; 34.8 µM in the experiment on 786-0 renal; 4.8 µM in the experiment on LOX IMVI melanoma; 36.3 µM in the experiment with M14 melanoma; over 50 µM in the experiment on HS 578T breast. Further, the TGI is over 50 µM with HOP-62 NSCLC, over 50 µM in the experiment on SK-MEL-2 melanoma, 38.5 µM with RXF 393 renal and over 26.1 µM with MCF7 breast.
`O=[As]c1ccc(C(=O)c2ccc(Oc3ccccc3)cc2)cc1` (centres undefined): the GI50 in the experiment on ACHN renal is 0.0358 µM; with SNB-19 CNS, 0.0651 µM; in the experiment with 786-0 renal, 0.0576 µM; in the experiment on LOX IMVI melanoma it was 0.0246 µM; in the experiment with M14 melanoma, 0.0695 µM; in the experiment with HS 578T breast, 0.129 µM. Further, the 50% growth inhibitory concentration (GI50) with HOP-62 NSCLC was 0.0356 µM; with SK-MEL-2 melanoma it was 0.118 µM; in the experiment on RXF 393 renal it was 0.0404 µM; with MCF7 breast it was 0.0181 µM. Moreover, the TGI came out at 0.114 µM with ACHN renal; 0.187 µM with SNB-19 CNS; 0.166 µM with 786-0 renal; 0.0796 µM in the experiment on LOX IMVI melanoma; 0.202 µM with M14 melanoma; 0.105 µM in the experiment with HOP-62 NSCLC. The total growth inhibition concentration (TGI) in the experiment on SK-MEL-2 melanoma is 0.287 µM; in the experiment with RXF 393 renal, 0.143 µM; in the experiment with MCF7 breast, 0.0903 µM.
